What was measured:
[1] = tested on: T-Rex 293 cell line SC3 cells having increased expression of androgen receptor protein due to exposure to doxycycline; assay: Cellular growth inhibition, T-Rex 293 SC3 cells with doxycycline (increased androgen receptor expression), CellTiter-Glo; type: cell-based; details: T-Rex 293 SC3 cells with 10 ng/mL doxycycline (increased androgen receptor expression), 72 hours, CellTiter-Glo 2.0
In short: (§1)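 Growth inhibition is measured in an inducible AR-expressing T-Rex 293 clone, SC3, cultured with or without 10 ng/mL doxycycline in hormone-depleted medium. Test compounds are applied for 72 hours. GI50 values derive from CellTiter-Glo 2.0 signal fitted by four-parameter regression.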

[2] = tested on: T-Rex 293 cell line SC3 cells lacking increased expression of androgen receptor protein; assay: Cellular growth inhibition, T-Rex 293 SC3 cells without doxycycline (no increased androgen receptor expression), CellTiter-Glo; type: cell-based; details: T-Rex 293 SC3 cells not exposed to doxycycline (no increased androgen receptor expression), 72 hours
In short: as §1

VCaP cells = assay: Cellular growth inhibition assay for VCaP cells, CellTiter-Glo; type: cell-based, human; details: 72 hours
In short: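 GI50 values come from four-parameter curve fits of luminescence data normalized to a zero baseline. Compound, in medium with 0.5% DMSO, was added one day after plating and left for 72 h before CellTiter-Glo 2.0 addition.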

T47D cells = assay: Cellular Growth Inhibition Assay for T47D Cells (CellTiter-Glo); type: cell-based, human; details: 72 hours
In short: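 GI50 values derive from four-parameter regression of CellTiter-Glo 2.0 luminescence, using zero luminescence as baseline. Human breast cancer T47D cells (3000/well; DMEM, 10% FBS, 0.2 units/mL insulin) were exposed for 72 h to compound dilutions at 0.5% DMSO, with dosing starting 24 h after seeding.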

**Q.** Which results are given for CCS(=O)(=O)Nc1ccc(Oc2cccc(N3CCC(OC4CCN(c5ncc(C(=O)N[C@H]6C(C)(C)[C@H](Oc7ccc(C#N)c(Cl)c7)C6(C)C)cn5)CC4)C3)c2)c(-c2cn(C)c(=O)c3[nH]ccc23)c1 (stereo partly drawn) [Compound I-81]?
**A.** GI50 [1]: < 500 nM; GI50 [2]: > 3000 nM; GI50 (VCaP cells; Homo sapiens): < 500 nM; GI50 (T47D cells; Homo sapiens): < 500 nM

**Q.** Which results are given for Cn1cc(-c2cc(C(C)(C)O)ccc2OCC(CCCN2CCN(c3ncc(C(=O)N[C@H]4C(C)(C)[C@H](Oc5ccc(C#N)c(Cl)c5)C4(C)C)cn3)CC2)C2CC2)c2cc[nH]c2c1=O (stereo partly drawn) [Compound I-237]?
**A.** GI50 [1]: < 500 nM; GI50 [2]: 500 to 1500 nM; GI50 (VCaP cells; Homo sapiens): 500 to 1500 nM; GI50 (T47D cells; Homo sapiens): 500 to 1500 nM

**Q.** CCS(=O)(=O)Nc1ccc(Oc2cccc(N3CCC(CC4CCN(c5ncc(C(=O)N[C@H]6C(C)(C)[C@H](Oc7ccc(C#N)c(Cl)c7)C6(C)C)cn5)CC4)C3)c2)c(-c2cn(C)c(=O)c3[nH]ccc23)c1 (stereo partly drawn) [Compound I-40] was tested. Which GI50 [1] did it give?
**A.** Its GI50 is < 500 nM.

**Q.** What about the GI50 [2] of the same molecule?
**A.** Its GI50 is > 3000 nM.

**Q.** What about the GI50 (VCaP cells; Homo sapiens) of the same molecule?
**A.** The GI50 was < 500 nM.

**Q.** What about the GI50 (T47D cells; Homo sapiens) of the same molecule?
**A.** Its GI50 is < 500 nM.

**Q.** How did the GI50 [1] turn out when Cn1cc(-c2cc(S(C)(=O)=O)ccc2Oc2cccc(N3CC(OC4CCN(c5ncc(C(=O)N[C@H]6C(C)(C)[C@H](Oc7ccc(C#N)c(Cl)c7)C6(C)C)cn5)CC4)C3)c2F)c2cc[nH]c2c1=O [Compound I-191] was run?
**A.** Its GI50 is < 500 nM.

**Q.** What about the GI50 [2] of the same molecule?
**A.** The GI50 was < 500 nM.

**Q.** What about the GI50 (VCaP cells) of the same molecule?
**A.** The GI50 was < 500 nM.

**Q.** What about the GI50 (T47D cells) of the same molecule?
**A.** Its GI50 is < 500 nM.

**Q.** Which results are given for CCS(=O)(=O)Nc1ccc(Oc2ccc(N3CC(CC4CCN(c5ncc(C(=O)N[C@H]6C(C)(C)[C@H](Oc7ccc(C#N)c(Cl)c7)C6(C)C)cn5)CC4)C3)cc2)c(-c2cn(C)c(=O)c3[nH]ccc23)c1 [Compound I-337]?
**A.** GI50 [1]: < 500 nM; GI50 [2]: > 3000 nM; GI50 (VCaP cells; Homo sapiens): < 500 nM; GI50 (T47D cells; Homo sapiens): < 500 nM

**Q.** With Cn1cc(-c2cc(C(C)(C)O)ccc2Oc2ccc(CC3CC(C4CCCN(c5ncc(C(=O)N[C@H]6C(C)(C)[C@H](Oc7ccc(C#N)c(Cl)c7)C6(C)C)cn5)C4)C3)cc2)c2cc[nH]c2c1=O (single isomer, unassigned) [Compound I-348] as the molecule, how does the GI50 [1] read?
**A.** The GI50 was < 500 nM.

**Q.** What about the GI50 [2] of the same molecule?
**A.** Its GI50 is > 3000 nM.

**Q.** What about the GI50 (VCaP cells) of the same molecule?
**A.** Its GI50 is < 500 nM.

**Q.** And the GI50 (T47D cells)?
**A.** The GI50 was < 500 nM.

**Q.** With CCS(=O)(=O)Nc1ccc(Oc2cccc(CCC3CCN(c4ncc(C(=O)N[C@H]5C(C)(C)[C@H](Oc6ccc(C#N)c(Cl)c6)C5(C)C)cn4)CC3)c2F)c(-c2cn(C)c(=O)c3[nH]ccc23)c1 [Compound I-165] as the molecule, how does the GI50 [1] read?
**A.** The GI50 was < 500 nM.

**Q.** And the GI50 [2]?
**A.** Its GI50 is > 3000 nM.

**Q.** What about the GI50 (VCaP cells; Homo sapiens) of the same molecule?
**A.** Its GI50 is < 500 nM.

**Q.** What about the GI50 (T47D cells; Homo sapiens) of the same molecule?
**A.** The GI50 was < 500 nM.

**Q.** With CCS(=O)(=O)c1ccc(Oc2ccc(CCC3CCN(c4ncc(C(=O)N[C@H]5C(C)(C)[C@H](Oc6ccc(C#N)c(Cl)c6)C5(C)C)cn4)CC3)c(F)c2)c(-c2cn(C)c(=O)c3[nH]ccc23)c1 [Compound I-284] as the molecule, how does the GI50 [1] read?
**A.** Its GI50 is < 500 nM.

**Q.** What about the GI50 [2] of the same molecule?
**A.** The GI50 was > 3000 nM.

**Q.** What about the GI50 (VCaP cells) of the same molecule?
**A.** Its GI50 is < 500 nM.

**Q.** And the GI50 (T47D cells)?
**A.** The GI50 was < 500 nM.

**Q.** Which results are given for Cn1cc(-c2cc(C(C)(C)O)ccc2-n2cc(N3CC(CC4CCN(c5ncc(C(=O)NC6C(C)(C)C(Oc7ccc(C#N)c(Cl)c7)C6(C)C)cn5)CC4)C3)ccc2=O)c2cc[nH]c2c1=O (stereo not drawn) [Compound I-344, N-[3-(3-chloro-4-cyano-phenoxy)-2,2,4,4-tetramethyl-cyclobutyl]-2-[4-[[1-[1-[4-(1-hydroxy-1-methyl-ethyl)-2-(6-methyl-7-oxo-1H-pyrrolo [2,3-c]pyridin-4-yl)phenyl]-6-oxo-3-pyridyl]azetidin-3-yl]methyl]-1-piperidyl]pyrimidine-5-carboxamide]?
**A.** GI50 [1]: > 3000 nM; GI50 [2]: > 3000 nM; GI50 (VCaP cells; Homo sapiens): > 3000 nM; GI50 (T47D cells; Homo sapiens): 500 to 1500 nM

**Q.** CCS(=O)(=O)Nc1ccc(Oc2cccc(C3CN(C4CCN(c5ncc(C(=O)N[C@H]6C(C)(C)[C@H](Oc7ccc(C#N)c(Cl)c7)C6(C)C)cn5)CC4)C3)c2)c(-c2cn(C)c(=O)c3[nH]ccc23)c1 [Compound I-76] was tested. Which GI50 [1] did it give?
**A.** Its GI50 is < 500 nM.

**Q.** What about the GI50 [2] of the same molecule?
**A.** The GI50 was 1500 to 3000 nM.

**Q.** What about the GI50 (VCaP cells; Homo sapiens) of the same molecule?
**A.** The GI50 was < 500 nM.

**Q.** And the GI50 (T47D cells; Homo sapiens)?
**A.** Its GI50 is < 500 nM.

**Q.** For Cn1cc(-c2cc([N+](=O)[O-])ccc2Oc2cccc(OCCOC3CCN(c4ncc(C(=O)N[C@H]5C(C)(C)[C@H](Oc6ccc(C#N)c(Cl)c6)C5(C)C)cn4)CC3)c2)c2cc[nH]c2c1=O [Compound I-63, N-((1r, 3r)-3-(3-chloro-4-cyanophenoxy)-2,2,4,4-tetramethylcyclobutyl)-2-(4-(2-(3-(2-(6-methyl-7-oxo-6,7-dihydro-1H-pyrrolo[2,3-c]pyridin-4-yl)-4-nitrophenoxy)phenoxy)ethoxy)piperidin-1-yl)pyrimidine-5-carboxamide], which GI50 [1] is on record?
**A.** The GI50 was < 500 nM.

**Q.** And the GI50 [2]?
**A.** The GI50 was > 3000 nM.

**Q.** And the GI50 (VCaP cells; Homo sapiens)?
**A.** The GI50 was < 500 nM.

**Q.** What about the GI50 (T47D cells; Homo sapiens) of the same molecule?
**A.** The GI50 was 500 to 1500 nM.

**Q.** For Cn1cc(-c2cc(C(C)(C)O)ccc2Oc2ccc(C(C)(C)N3CC4(CCN(c5ncc(C(=O)N[C@H]6C(C)(C)[C@H](Oc7ccc(C#N)c(Cl)c7)C6(C)C)cn5)CC4)C3)cc2)c2cc[nH]c2c1=O [Compound I-308], which GI50 [1] is on record?
**A.** The GI50 was < 500 nM.

**Q.** And the GI50 [2]?
**A.** The GI50 was 500 to 1500 nM.

**Q.** What about the GI50 (VCaP cells; Homo sapiens) of the same molecule?
**A.** The GI50 was < 500 nM.

**Q.** And the GI50 (T47D cells; Homo sapiens)?
**A.** Its GI50 is > 3000 nM.

Source: US20250388605A1, “HETEROBIFUNCTIONAL COMPOUNDS AND METHODS OF TREATING DISEASE” (Halda Therapeutics OpCo, Inc., priority 2022, published 2025)
